“Also recorded” adds a separate entry of the source. Read-outs that look alike come from different tables or passages of the source.

What is called IC50 is the concentration at which inhibition is half-maximal. The Km is the concentration of substrate that gives half-maximal velocity.

The target in data set [1] is T1, hOATP1B1 (Homo sapiens, UniProt Q9Y6L6).
T1 sequence (Q9Y6L6 1-691): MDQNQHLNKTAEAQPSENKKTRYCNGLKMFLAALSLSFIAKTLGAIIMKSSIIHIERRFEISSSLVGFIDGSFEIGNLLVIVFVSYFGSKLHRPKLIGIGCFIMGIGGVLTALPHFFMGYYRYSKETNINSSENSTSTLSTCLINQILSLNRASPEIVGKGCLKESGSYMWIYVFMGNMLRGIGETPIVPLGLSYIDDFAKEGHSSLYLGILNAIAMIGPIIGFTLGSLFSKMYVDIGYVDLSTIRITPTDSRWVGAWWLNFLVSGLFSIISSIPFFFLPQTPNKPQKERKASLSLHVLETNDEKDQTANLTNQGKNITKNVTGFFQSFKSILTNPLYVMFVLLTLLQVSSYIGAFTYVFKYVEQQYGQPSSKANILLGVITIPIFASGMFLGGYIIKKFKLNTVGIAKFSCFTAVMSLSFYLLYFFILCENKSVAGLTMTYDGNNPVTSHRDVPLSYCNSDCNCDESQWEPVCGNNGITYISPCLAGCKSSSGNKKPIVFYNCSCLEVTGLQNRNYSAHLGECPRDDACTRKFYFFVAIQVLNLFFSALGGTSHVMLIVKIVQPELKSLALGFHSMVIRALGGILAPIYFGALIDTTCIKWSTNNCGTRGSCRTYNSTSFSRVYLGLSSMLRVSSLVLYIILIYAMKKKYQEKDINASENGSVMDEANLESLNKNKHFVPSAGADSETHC
Conditions: read-out: IC50 for hOATP1B1, cited from earlier work.

In data set [2] the target is T1, hOATP1B1. The data set can be described thus: cis-inhibition of hOATP1B1-mediated E1S uptake in HEK293 cells. Format: cell-based. On the set-up: expressed in transfected cells; host or cells: HEK-293, stably transfected. The conditions noted are these: 10 µM drug; for Inhibitory effect on hOATP1B1-mediated E1S uptake: 0.01 µM [3H]-E1S, 1 min; for inhibition at 1 min, 10 µM: human, HEK293 cells expressing hOATP1B1, probe 0.01 µM [3H]-E1S, read-out: Inhibitory effect on hOATP1B1-mediated E1S uptake. As to the method: Inhibitory effects were calculated as a percentage of the net-uptake rates.
The means ± average deviation (AD, for N = 2) were calculated from two experiments on two different days. The significance as a p-value was calculated using Student’s t-test in Microsoft Excel.

In data set [3] the target is T2, hOATP1B3 (Homo sapiens, UniProt Q9NPD5).
T2 sequence (Q9NPD5 1-702): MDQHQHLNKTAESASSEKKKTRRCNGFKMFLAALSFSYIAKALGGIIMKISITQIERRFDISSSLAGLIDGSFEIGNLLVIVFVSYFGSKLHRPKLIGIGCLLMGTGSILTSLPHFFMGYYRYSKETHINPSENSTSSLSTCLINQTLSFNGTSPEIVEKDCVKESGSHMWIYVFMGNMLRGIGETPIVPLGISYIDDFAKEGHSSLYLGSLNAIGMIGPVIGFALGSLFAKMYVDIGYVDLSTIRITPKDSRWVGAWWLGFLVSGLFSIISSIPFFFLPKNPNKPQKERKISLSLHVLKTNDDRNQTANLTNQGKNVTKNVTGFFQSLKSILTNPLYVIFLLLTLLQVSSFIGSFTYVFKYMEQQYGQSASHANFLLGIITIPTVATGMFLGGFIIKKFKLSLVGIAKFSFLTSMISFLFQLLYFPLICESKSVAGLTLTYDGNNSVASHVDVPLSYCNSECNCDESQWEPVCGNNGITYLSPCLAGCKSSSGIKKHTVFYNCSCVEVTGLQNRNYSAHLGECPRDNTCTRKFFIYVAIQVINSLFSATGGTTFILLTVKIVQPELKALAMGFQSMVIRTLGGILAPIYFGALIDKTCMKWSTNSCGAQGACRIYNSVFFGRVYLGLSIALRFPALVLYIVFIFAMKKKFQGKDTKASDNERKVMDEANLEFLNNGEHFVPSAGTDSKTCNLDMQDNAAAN
On the set-up: expressed in transfected cells; host or cells: HEK-293, stably transfected. Conditions: read-out: Km as substrate of hOATP1B3; cited from earlier work.

In data set [4] the target is T1, hOATP1B1. On the set-up: expressed in transfected cells; host or cells: HEK-293, stably transfected. Conditions: read-out: Km as substrate of hOATP1B1; cited from earlier work.
The next data set addresses T3, rOATP1B2 (Rattus norvegicus, UniProt Q9QZX8).
T3 construct: The full-length mOATP1B2 and rOATP1B2 consist of 689 and 678 amino acids
T3 sequence (Q9QZX8 1-687): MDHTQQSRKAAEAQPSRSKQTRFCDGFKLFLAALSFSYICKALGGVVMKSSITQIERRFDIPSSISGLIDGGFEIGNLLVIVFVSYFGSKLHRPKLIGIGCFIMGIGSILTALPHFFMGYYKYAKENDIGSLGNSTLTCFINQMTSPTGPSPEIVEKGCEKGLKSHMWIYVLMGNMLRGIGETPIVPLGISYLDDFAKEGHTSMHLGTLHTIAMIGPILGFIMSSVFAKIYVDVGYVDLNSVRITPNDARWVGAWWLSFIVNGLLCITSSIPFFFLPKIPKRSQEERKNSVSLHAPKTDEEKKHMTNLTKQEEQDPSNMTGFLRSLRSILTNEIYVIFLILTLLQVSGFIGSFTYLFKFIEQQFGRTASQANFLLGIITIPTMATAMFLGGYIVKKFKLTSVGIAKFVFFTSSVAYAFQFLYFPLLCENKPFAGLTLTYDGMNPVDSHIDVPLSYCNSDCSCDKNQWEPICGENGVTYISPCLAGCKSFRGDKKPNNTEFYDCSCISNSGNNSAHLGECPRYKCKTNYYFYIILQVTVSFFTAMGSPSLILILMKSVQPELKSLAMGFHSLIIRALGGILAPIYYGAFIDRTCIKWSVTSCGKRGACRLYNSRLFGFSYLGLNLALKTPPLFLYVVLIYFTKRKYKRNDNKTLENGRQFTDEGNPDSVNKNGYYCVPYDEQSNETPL
Further details: method as in Ishida et al. (2018) [9]. Conditions: ref Ishida et al. (2018) [9]; read-out: Km, rOATP1B2-mediated uptake; cited from earlier work.

Data set [5] deals with T2, hOATP1B3. The conditions noted are these: read-out: IC50 for OATP1B3; cited from earlier work.

On to `Clc1ccccc1C(c1ccccc1)(c1ccccc1)n1ccnc1` [Clotrimazole, clotrimazole], for which, on hOATP1B1 [1], the IC50 is 9 µM. For the same molecule, at hOATP1B1 [2], the “Inhibitory effect on hOATP1B1-mediated E1S uptake” value (“Inhibitory effect” for short) is given as “did not inhibit” and the inhibition at 1 min, 10 µM came out at 10%.

Take `CC(C)c1nc(N(C)S(C)(=O)=O)nc(-c2ccc(F)cc2)c1/C=C/[C@@H](O)C[C@@H](O)CC(=O)O` [Rosuvastatin, rosuvastatin]: the figures for the Michaelis constant (Km) at hOATP1B3 [3], on hOATP1B1 [4] and at rOATP1B2 were 14.2 µM, 0.8 µM and 28.1 µM, respectively. For the same molecule, the inhibition at 1 min, 10 µM on hOATP1B1 [2] came out at 16%.

Turning to `CC(=O)N1CCN(c2ccc(OCC3COC(Cn4ccnc4)(c4ccc(Cl)cc4Cl)O3)cc2)CC1` (centres unmarked) [Ketoconazole, ketoconazole], the IC50 at hOATP1B1 [1] (estradiol-17β-glucuronide as substrate) is 1.8 µM. Also, the “Inhibitory effect” value at hOATP1B1 [2] is given as 25%; on hOATP1B1 [2] (listed as ketoconazole), “less than 50%”.

`CO[C@H]1/C=C/O[C@@]2(C)Oc3c(C)c(O)c4c(O)c(c(/C=N/N5CCN(C)CC5)c(O)c4c3C2=O)NC(=O)/C(C)=C\C=C\[C@H](C)[C@H](O)[C@@H](C)[C@@H](O)[C@@H](C)[C@H](OC(C)=O)[C@@H]1C` [Rifampicin, rifampicin]: on hOATP1B1 [2], the inhibition at 1 min, 10 µM was determined as 59%.

Turning to `CCCCC1(CCCC)CN(c2ccccc2)c2cc(SC)c(OCC(=O)N[C@@H](C(=O)N[C@@H](CC)C(=O)O)c3ccc(O)cc3)cc2S(=O)(=O)N1` [Odevixibat, odevixibat], at hOATP1B1 [2], the “Inhibitory effect” value is “completely inhibited; also recorded: complete inhibition” and the inhibition at 1 min, 10 µM worked out at 96%.

With `CC(C)CN(C[C@@H](O)[C@H](Cc1ccccc1)NC(=O)O[C@H]1CCOC1)S(=O)(=O)c1ccc(N)cc1` [Amprenavir, amprenavir], the IC50 is 16.8 µM on hOATP1B1 [1] (ref Karlgren et al. (2012) [21]) and 19.1 µM on hOATP1B3 [5]. Also, the “Inhibitory effect” value is −1% at hOATP1B1 [2] and “less than 50%” on hOATP1B1 [2] (listed as amprenavir).

Values taken from article PMC12846068, “Insights into Transport Function of the Murine Organic Anion-Transporting Polypeptide OATP1B2 by Comparison with Its Rat and Human Orthologues” (Toxics, 2025).
